Common to all, as to assay type: cell-based
The test system of one assay is C33A. The assay can be described thus: MTT cell viability / cisplatin IC50 determination. How it is done:
(§1) HeLa, SiHa, CaSki and C33A cell lines were purchased from the American Type Culture Collection (ATCC) and maintained in Dulbecco's Modified Eagle's Medium (DMEM, Gibco, Life Technologies) containing 10% Fetal Bovine Serum (Gibco, Life Technologies), supplemented with 100 U/mL penicillin and 100 μg/mL streptomycin. Cells were cultured at 37° C. in a humidified chamber with 5% CO2. All cell lines were authenticated by DNA profiling using the Cell ID System (Promega, Madison, WI, USA).
(§2) Cells were plated in 96-well plates and subjected to single or CT (2 h INI-43 pre-treatment followed by cisplatin treatment, without removing IN1-43 from the media) for 48 h. Following treatment, MTT (Sigma) was added and 4 h later crystals solubilized using 10% SLS in 0.01 M HCl. Absorbencies were measured at 595 nm and IC50 values determined via plotting [Fa/(1-Fa)] in log scale against log cisplatin concentration, where:
(§3) The half inhibitory concentration was calculated using the formula IC50=10^x-intercept

For another assay, the system named is CaSki. The assay can be described thus: MTT cell viability / cisplatin IC50 determination. Particulars: for cell viability, combination treatment vs cisplatin-only: 5 μM INI-43 pre-treatment, fixed cisplatin concentrations, MTT 48 h. How it is done: as §1, §2, §3
A further assay relates to HeLa. Put plainly: MTT cell viability / cisplatin IC50 determination. As to conditions: for cell viability, combination treatment vs cisplatin-only: 5 μM INI-43 pre-treatment, fixed cisplatin concentrations, MTT 48 h. How it is done: as §1, §2, §3
Another assay deals with SiHa. Put plainly: MTT cell viability / cisplatin IC50 determination. Particulars: for cell viability, combination treatment vs cisplatin-only: 5 μM INI-43 pre-treatment, fixed cisplatin concentrations, MTT 48 h. The procedure: as §1, §2, §3
In another assay the test system is HeLa cells. Put plainly: Caspase-3/7 assay (Caspase-Glo 3/7). Particulars: INI-43 pre-treatment plus cisplatin, 48 h. The procedure:
(§4) Cells were subjected to single or CT for 48 h, and caspase-3/7 activity monitored using the Promega Caspase-Glo^R 3/7 assay, according to the manufacturer's instructions. Luminescence was measured using the Veritas™ microplate luminometer (Promega) and results standardized to viable cells in each treatment as determined by MTT assays performed in parallel.

The subject of the next assay is SiHa cells. Put plainly: Caspase-3/7 assay (Caspase-Glo 3/7). As to conditions: INI-43 pre-treatment plus cisplatin, 48 h. The procedure:
as §4

Assay [1] deals with p53 reporter activity in SiHa cells. Put plainly: p53-luciferase reporter assay. How it is done: (§5) SiHa cells were transfected with 100 ng p65-luciferase reporter construct (containing five copies of the p65-binding site, Promega) or 200 ng p53-luciferase reporter construct (containing thirteen wildtype p53 binding sites, Addgene plasmid #16442, Addgene Plasmid Repository (el-Deiry W S, Tokino T, Velculescu V E, Levy D B, Parsons R, Trent J M, et al. WAF1, a potential mediator of p53 tumor suppression. Cell. 1993; 75(4):817-25) and 10 ng pRL-TK (encoding Renilla luciferase, Promega), using Genecellin transfection reagent (Celtic Molecular Diagnostics). The following day cells were treated with 5 μM INI-43 for 2 h, followed by 30 μM cisplatin for 24 h, and luciferase activity assayed using the Dual-Luciferase Report assay system (Promega), according to the manufacturer's instructions. Luciferase readings were measured using the Veritas™ microplate luminometer (Promega) and normalised to Renilla luciferase from the same extract.

The test system of assay [2] is p65 reporter activity in SiHa cells. The assay can be described thus: p65-luciferase reporter assay. Particulars: pre-treated with INI-43 then cisplatin. The procedure:
as §5
On the technique in general: In a reporter assay the amount or activity of a reporter protein is the signal.

For assay [3], the system named is cyclin D1, c-Myc and XIAP. The assay can be described thus: Western blot of NFκB targets. As to conditions: INI-43-cisplatin combination vs single cisplatin, concentration dependent. How it is done:
(§6) For protein extraction, cells were washed with PBS and lysed using RIPA buffer (50 mM Tris-CI, pH 7.4, 150 mM NaCl, 1% (w/v) sodium deoxycholate, 0.1% (v/v) SDS, 1% (v/v) Triton X-100, 2 mM EGTA, 2 mM EDTA, 50 mM NaF, 5 mM Na2P2O7, 1× complete protease inhibitor cocktail (Roche) and 0.1 M Sodium Orthovanadate). For PARP cleavage analysis, dead cells were collected by centrifugation and combined with live cell lysates. Lysates were sonicated, centrifuged, and the supernatant quantified using the BCA Protein Assay Kit (Pierce, Thermo Scientific) according to the manufacturer's instructions. Proteins were subjected to Western blot analysis using the following antibodies: rabbit anti-Kpnβ1 (H-300, sc-11,367, Santa Cruz), rabbit anti-β-tubulin (H-235, sc-9104, Santa Cruz), rabbit anti-PARP1/2 antibody (H-250, sc-7150, Santa Cruz), mouse anti-GAPDH (0411, sc-47,724, Santa Cruz), rabbit anti-p21 (H-164, sc-756, Santa Cruz), rabbit anti-Mcl-1 (H-260, sc-20,679, Santa Cruz), mouse anti-cyclin D1 (HD11, sc-246, Santa Cruz), rabbit anti-c-Myc (N-262, sc-764, Santa Cruz), mouse anti-p53 (DO-7, M7001, DakoCytomation), mouse anti-XIAP (610,763, BD Biosciences), and rabbit anti-phospho-Histone H2AX (γH2AX, Ser139, 20E3, #9718, Cell Signal).
Background: A western blot detects proteins with antibodies after separation by electrophoresis.

A further assay deals with γH2AX. The assay can be described thus: Western blot of phosphorylated Histone 2AX (DNA damage marker). Particulars: INI-43-cisplatin CT, 24 h, concentration dependent. The procedure: as §6
[4] abbreviates: 2 h INI-43 pre-treatment then cisplatin 48 h, vs no pre-treatment.

For the compound `CN(C)CCCn1c(N)c(-c2nc3ccccc3[nH]2)c2nc3ccccc3nc21` [INI-43], the “cell viability, INI-43 on its own” value with C33A (5 μM INI-43), in the assay on CaSki (5 μM INI-43), in the assay with HeLa (5 μM INI-43) and in the assay with SiHa (5 μM INI-43) was “did not affect cell viability” throughout. Also, the “cell viability, combination treatment vs cisplatin-only” value in the assay with C33A (5 μM INI-43 pre-treatment, fixed cisplatin concentrations, MTT 48 h) is “no change in cell viability”; with CaSki, “significantly decreased cell viability”; in the assay with CaSki (listed as Compound A) it was “increased cisplatin sensitivity”; in the assay with HeLa it was “significantly decreased cell viability”; with HeLa (listed as Compound A), “increased cisplatin sensitivity”; with SiHa, “significantly decreased cell viability”. Further, the “cell viability, combination treatment vs cisplatin-only” value with SiHa (listed as Compound A) is “increased cisplatin sensitivity”. Also, the “change in cisplatin IC50” value in the assay on C33A (setting [4]) is recorded as “no change”; with CaSki (setting [4]), “small reduction”. The “decrease in cisplatin IC50” value is recorded as 44% with HeLa (setting [4]) and 46% in the assay with SiHa (setting [4]). The “increase in caspase-3/7 activation, combination vs cisplatin only” value in the assay with HeLa cells was found to be 3.6 fold; with SiHa cells, 2.8 fold. The p53 reporter activity entry in assay [1] (5 μM INI-43 alone, 24 h) was “small but significant increase”; in assay [1] (INI-43 pre-treatment plus cisplatin vs cisplatin alone), “significantly increased”. The “cisplatin-induced increase in p65 activity” value in assay [2] is “reduced”. For the same compound, the “levels of cyclin D1, c-Myc and XIAP” value in [3] is reported as “all reduced”. Moreover, in the assay on γH2AX, the γH2AX levels entry is given as “increased”.

(Values after patent US20240342168A1, “SMALL MOLECULE INHIBITORS FOR ANTI-CANCER COMBINATION THERAPY” (UNIVERSITY OF CAPE TOWN, priority 2021, published 2024).)
